# Laboratory results: ChEMBL document CHEMBL5678810
# Activity calls are given as the source filed them. No cut-off for these calls is given here.
# Columns and labels:
# [1] = tested on: Mast/stem cell growth factor receptor Kit (Homo sapiens), P10721 [D816V]; experiment: Inhibition of T7 bacteriophage fused human KIT D816V mutant at 10 uM by KINOMEscan analysis relative to control
# [2] = biological target: Insulin receptor-related protein (Homo sapiens) (UniProt P14616); experiment: Inhibition of T7 bacteriophage fused human INSRR at 10 uM by KINOMEscan analysis relative to control; values are per cent of control
# [3] = biological target: Casein kinase I isoform gamma-3 (Homo sapiens) (UniProt Q9Y6M4); experiment: Inhibition of T7 bacteriophage fused human CSNK1G3 at 10 uM by KINOMEscan analysis relative to control; values are per cent of control
# [4] = biological target: Dual specificity mitogen-activated protein kinase kinase 5 (Homo sapiens) (UniProt Q13163); experiment: Inhibition of T7 bacteriophage fused human MEK5 at 10 uM by KINOMEscan analysis relative to control; values are per cent of control
# [5] = biological target: Activin receptor type-1-like (Homo sapiens) (UniProt P37023); experiment: Inhibition of T7 bacteriophage fused human ACVRL1 at 10 uM by KINOMEscan analysis relative to control
# [6] = biological target: Tyrosine-protein kinase BTK (Homo sapiens) (UniProt Q06187); experiment: Inhibition of T7 bacteriophage fused human BTK at 10 uM by KINOMEscan analysis relative to control
# [7] = biological target: Serine/threonine-protein kinase N2 (Homo sapiens) (UniProt Q16513); experiment: Inhibition of T7 bacteriophage fused human PKN2 at 10 uM by KINOMEscan analysis relative to control
# [8] = biological target: Receptor-type tyrosine-protein kinase FLT3 (Homo sapiens) (UniProt P36888); experiment: Inhibition of T7 bacteriophage fused human FLT3 at 10 uM by KINOMEscan analysis relative to control
# [9] = biological target: Calcium/calmodulin-dependent protein kinase type 1G (Homo sapiens) (UniProt Q96NX5); experiment: Inhibition of T7 bacteriophage fused human CAMK1G at 10 uM by KINOMEscan analysis relative to control
# [10] = biological target: Myosin-IIIb (Homo sapiens) (UniProt Q8WXR4); experiment: Inhibition of T7 bacteriophage fused human MYO3B at 10 uM by KINOMEscan analysis relative to control
# [11] = biological target: MAP kinase-activated protein kinase 5 (Homo sapiens) (UniProt Q8IW41); experiment: Inhibition of T7 bacteriophage fused human MAPKAPK5 at 10 uM by KINOMEscan analysis relative to control; values are per cent of control
# [12] = tested on: Mast/stem cell growth factor receptor Kit (Homo sapiens), P10721 [L576P]; experiment: Inhibition of T7 bacteriophage fused human KIT L576P mutant at 10 uM by KINOMEscan analysis relative to control
# [13] = biological target: Dual specificity mitogen-activated protein kinase kinase 4 (Homo sapiens) (UniProt P45985); experiment: Inhibition of T7 bacteriophage fused human MEK4 at 10 uM by KINOMEscan analysis relative to control
# [14] = biological target: Mitogen-activated protein kinase 12 (Homo sapiens) (UniProt P53778); experiment: Inhibition of T7 bacteriophage fused human p38-gamma at 10 uM by KINOMEscan analysis relative to control
# [15] = biological target: Macrophage colony-stimulating factor 1 receptor (Homo sapiens) (UniProt P07333); experiment: Inhibition of T7 bacteriophage fused human CSF1R at 10 uM by KINOMEscan analysis relative to control; values are per cent of control
# [16] = biological target: RAC-alpha serine/threonine-protein kinase (Homo sapiens) (UniProt P31749); experiment: Inhibition of T7 bacteriophage fused human AKT1 at 10 uM by KINOMEscan analysis relative to control
# [17] = biological target: LIM domain kinase 2 (Homo sapiens) (UniProt P53671); experiment: Inhibition of T7 bacteriophage fused human LIMK2 at 10 uM by KINOMEscan analysis relative to control
# [18] = biological target: Citron Rho-interacting kinase (Homo sapiens) (UniProt O14578); experiment: Inhibition of T7 bacteriophage fused human CIT at 10 uM by KINOMEscan analysis relative to control; values are per cent of control
# [19] = biological target: Receptor tyrosine-protein kinase erbB-2 (Homo sapiens) (UniProt P04626); experiment: Inhibition of T7 bacteriophage fused human ERBB2 at 10 uM by KINOMEscan analysis relative to control
# [20] = biological target: Casein kinase I isoform alpha (Homo sapiens) (UniProt P48729); experiment: Inhibition of T7 bacteriophage fused human CSNK1A1 at 10 uM by KINOMEscan analysis relative to control
# [21] = biological target: Serine/threonine-protein kinase tousled-like 1 (Homo sapiens) (UniProt Q9UKI8); experiment: Inhibition of T7 bacteriophage fused human TLK1 at 10 uM by KINOMEscan analysis relative to control
# [22] = biological target: Serine/threonine-protein kinase BRSK2 (Homo sapiens) (UniProt Q8IWQ3); experiment: Inhibition of T7 bacteriophage fused human BRSK2 at 10 uM by KINOMEscan analysis relative to control
# [23] = biological target: Glycogen synthase kinase-3 alpha (Homo sapiens) (UniProt P49840); experiment: Inhibition of T7 bacteriophage fused human GSK3A at 10 uM by KINOMEscan analysis relative to control
# [24] = biological target: BMP-2-inducible protein kinase (Homo sapiens) (UniProt Q9NSY1); experiment: Inhibition of T7 bacteriophage fused human BIKE at 10 uM by KINOMEscan analysis relative to control
# [25] = biological target: Cyclin-dependent kinase 9 (Homo sapiens) (UniProt P50750); experiment: Inhibition of T7 bacteriophage fused human CDK9 at 10 uM by KINOMEscan analysis relative to control
# [26] = biological target: G protein-coupled receptor kinase 4 (Homo sapiens) (UniProt P32298); experiment: Inhibition of T7 bacteriophage fused human GRK4 at 10 uM by KINOMEscan analysis relative to control; values are per cent of control
# [27] = biological target: Inhibitor of nuclear factor kappa-B kinase subunit beta (Homo sapiens) (UniProt O14920); experiment: Inhibition of T7 bacteriophage fused human IKK-beta at 10 uM by KINOMEscan analysis relative to control
# [28] = biological target: Serine/threonine-protein kinase RIO2 (Homo sapiens) (UniProt Q9BVS4); experiment: Inhibition of T7 bacteriophage fused human RIOK2 at 10 uM by KINOMEscan analysis relative to control
# [29] = biological target: Calcium/calmodulin-dependent protein kinase type IV (Homo sapiens) (UniProt Q16566); experiment: Inhibition of T7 bacteriophage fused human CAMK4 at 10 uM by KINOMEscan analysis relative to control
# [30] = biological target: Serine/threonine-protein kinase 17A (Homo sapiens) (UniProt Q9UEE5); experiment: Inhibition of T7 bacteriophage fused human DRAK1 at 10 uM by KINOMEscan analysis relative to control
# [31] = biological target: Leucine-rich repeat serine/threonine-protein kinase 2 (Homo sapiens) (UniProt Q5S007); experiment: Inhibition of wildtype GFP-tagged LRRK2 phosphorylation at Ser935 residue (unknown origin) transfected in HEK293 cells upto 3 uM incubated for 90 mins by immunoblot analysis; type: cell-based
# Leucine-rich repeat serine/threonine-protein kinase 2 (Homo sapiens), sequence (Q5S007 whole entry): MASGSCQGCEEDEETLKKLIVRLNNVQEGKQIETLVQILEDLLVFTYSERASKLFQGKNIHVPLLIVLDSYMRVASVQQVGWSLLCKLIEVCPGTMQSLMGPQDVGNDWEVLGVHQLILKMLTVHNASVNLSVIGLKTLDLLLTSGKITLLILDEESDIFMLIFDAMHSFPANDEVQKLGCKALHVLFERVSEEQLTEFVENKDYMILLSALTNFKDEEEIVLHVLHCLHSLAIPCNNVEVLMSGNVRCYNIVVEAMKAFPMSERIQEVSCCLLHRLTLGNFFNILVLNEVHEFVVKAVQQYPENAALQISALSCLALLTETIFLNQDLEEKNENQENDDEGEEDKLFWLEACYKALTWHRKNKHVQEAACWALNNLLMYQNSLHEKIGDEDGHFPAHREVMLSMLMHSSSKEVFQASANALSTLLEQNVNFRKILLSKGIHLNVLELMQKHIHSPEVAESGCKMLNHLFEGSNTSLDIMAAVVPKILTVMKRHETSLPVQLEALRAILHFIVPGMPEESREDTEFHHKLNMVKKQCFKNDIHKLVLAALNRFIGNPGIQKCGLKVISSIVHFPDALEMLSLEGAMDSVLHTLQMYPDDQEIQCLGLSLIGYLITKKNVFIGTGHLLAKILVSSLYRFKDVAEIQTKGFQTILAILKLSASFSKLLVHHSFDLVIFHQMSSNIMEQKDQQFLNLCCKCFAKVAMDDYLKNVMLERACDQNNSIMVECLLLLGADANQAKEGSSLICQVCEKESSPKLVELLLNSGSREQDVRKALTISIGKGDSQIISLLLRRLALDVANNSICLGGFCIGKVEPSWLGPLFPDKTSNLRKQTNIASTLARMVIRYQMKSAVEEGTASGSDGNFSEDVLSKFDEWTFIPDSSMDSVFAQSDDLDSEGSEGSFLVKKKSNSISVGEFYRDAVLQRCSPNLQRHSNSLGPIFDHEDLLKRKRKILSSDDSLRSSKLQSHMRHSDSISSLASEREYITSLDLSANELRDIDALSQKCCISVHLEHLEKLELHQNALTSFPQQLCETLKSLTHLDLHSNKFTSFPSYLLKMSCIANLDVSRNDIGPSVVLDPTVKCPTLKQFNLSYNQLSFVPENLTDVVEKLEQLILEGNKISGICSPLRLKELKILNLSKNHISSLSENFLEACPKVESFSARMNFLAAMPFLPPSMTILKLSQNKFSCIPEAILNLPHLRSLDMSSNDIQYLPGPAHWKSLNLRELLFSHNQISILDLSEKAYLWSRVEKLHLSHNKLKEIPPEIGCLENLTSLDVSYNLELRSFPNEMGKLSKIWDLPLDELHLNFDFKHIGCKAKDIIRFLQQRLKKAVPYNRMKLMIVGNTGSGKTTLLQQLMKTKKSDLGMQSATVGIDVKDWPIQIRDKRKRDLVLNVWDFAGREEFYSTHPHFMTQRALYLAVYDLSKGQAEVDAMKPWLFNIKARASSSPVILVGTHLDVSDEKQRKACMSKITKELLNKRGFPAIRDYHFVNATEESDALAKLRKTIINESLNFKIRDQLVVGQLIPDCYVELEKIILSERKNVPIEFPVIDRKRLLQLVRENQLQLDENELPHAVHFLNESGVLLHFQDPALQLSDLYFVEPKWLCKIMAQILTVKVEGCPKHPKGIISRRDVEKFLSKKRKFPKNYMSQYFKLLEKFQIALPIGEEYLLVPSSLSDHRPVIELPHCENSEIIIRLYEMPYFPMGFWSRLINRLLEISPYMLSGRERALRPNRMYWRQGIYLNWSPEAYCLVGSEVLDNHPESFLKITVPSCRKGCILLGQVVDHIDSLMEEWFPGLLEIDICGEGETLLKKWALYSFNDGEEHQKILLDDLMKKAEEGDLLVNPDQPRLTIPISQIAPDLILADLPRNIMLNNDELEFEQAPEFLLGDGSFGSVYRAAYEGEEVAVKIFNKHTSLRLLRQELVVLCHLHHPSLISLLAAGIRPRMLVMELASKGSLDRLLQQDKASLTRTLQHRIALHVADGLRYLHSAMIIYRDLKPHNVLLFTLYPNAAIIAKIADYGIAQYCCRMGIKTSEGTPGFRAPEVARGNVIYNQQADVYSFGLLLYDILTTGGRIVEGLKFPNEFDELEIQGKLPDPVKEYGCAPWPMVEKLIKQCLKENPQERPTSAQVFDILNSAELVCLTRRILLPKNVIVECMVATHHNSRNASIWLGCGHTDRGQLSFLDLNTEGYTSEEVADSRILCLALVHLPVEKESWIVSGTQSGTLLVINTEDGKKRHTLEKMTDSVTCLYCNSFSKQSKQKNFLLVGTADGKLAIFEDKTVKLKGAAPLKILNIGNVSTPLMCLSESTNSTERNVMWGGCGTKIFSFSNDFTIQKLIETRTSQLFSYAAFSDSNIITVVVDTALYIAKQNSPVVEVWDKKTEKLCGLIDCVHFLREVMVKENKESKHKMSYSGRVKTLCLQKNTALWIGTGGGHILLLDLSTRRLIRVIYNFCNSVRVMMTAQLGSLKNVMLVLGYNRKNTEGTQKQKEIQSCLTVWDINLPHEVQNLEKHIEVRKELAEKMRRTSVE
# RAC-alpha serine/threonine-protein kinase (Homo sapiens), sequence (P31749 whole entry, the tested form may be a part): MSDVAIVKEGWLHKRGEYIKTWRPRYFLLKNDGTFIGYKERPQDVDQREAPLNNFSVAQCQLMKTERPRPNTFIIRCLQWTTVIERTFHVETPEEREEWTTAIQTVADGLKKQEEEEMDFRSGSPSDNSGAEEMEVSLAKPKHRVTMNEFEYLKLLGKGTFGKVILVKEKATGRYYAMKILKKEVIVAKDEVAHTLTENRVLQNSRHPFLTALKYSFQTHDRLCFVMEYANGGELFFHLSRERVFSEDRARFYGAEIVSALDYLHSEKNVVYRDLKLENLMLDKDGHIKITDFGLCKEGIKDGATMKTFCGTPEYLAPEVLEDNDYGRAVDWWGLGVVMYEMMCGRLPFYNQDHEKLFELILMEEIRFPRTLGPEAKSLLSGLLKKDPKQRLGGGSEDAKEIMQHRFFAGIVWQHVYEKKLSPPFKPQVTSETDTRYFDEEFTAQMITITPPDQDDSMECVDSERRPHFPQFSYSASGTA
# LIM domain kinase 2 (Homo sapiens), sequence (P53671 whole entry, looked up, the tested form may be a part): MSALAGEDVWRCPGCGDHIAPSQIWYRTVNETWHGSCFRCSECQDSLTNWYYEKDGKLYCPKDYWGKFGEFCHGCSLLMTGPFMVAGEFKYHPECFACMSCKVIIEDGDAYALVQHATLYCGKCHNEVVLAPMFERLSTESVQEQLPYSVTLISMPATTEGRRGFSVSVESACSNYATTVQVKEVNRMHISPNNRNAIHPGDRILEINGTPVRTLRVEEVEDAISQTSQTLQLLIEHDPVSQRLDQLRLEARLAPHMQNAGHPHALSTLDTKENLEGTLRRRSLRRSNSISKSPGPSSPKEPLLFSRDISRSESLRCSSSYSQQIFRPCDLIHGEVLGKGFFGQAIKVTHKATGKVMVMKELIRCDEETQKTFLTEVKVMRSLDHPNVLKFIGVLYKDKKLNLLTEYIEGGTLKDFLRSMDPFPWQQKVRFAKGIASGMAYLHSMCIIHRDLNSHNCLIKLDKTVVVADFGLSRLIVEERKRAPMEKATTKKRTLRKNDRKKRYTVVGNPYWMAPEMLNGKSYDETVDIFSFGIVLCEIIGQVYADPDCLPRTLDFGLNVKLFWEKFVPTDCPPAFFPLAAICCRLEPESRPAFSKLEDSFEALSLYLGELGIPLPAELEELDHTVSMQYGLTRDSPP
# Activin receptor type-1-like (Homo sapiens), sequence (P37023 whole entry, the tested form may be a part): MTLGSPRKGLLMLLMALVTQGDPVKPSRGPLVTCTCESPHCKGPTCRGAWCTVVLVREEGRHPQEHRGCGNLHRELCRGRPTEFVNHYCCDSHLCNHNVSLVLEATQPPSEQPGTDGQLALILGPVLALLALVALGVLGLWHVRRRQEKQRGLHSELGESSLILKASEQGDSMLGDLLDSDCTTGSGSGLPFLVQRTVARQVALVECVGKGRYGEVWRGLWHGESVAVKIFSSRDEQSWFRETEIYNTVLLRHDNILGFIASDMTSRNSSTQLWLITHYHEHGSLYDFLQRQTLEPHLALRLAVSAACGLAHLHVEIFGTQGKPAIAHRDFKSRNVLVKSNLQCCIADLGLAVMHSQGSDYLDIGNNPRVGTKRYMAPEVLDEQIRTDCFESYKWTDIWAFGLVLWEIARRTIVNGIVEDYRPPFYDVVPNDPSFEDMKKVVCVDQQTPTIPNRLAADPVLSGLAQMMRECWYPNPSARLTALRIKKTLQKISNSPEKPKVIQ
# Casein kinase I isoform alpha (Homo sapiens), sequence (P48729 2-337 limits assumed): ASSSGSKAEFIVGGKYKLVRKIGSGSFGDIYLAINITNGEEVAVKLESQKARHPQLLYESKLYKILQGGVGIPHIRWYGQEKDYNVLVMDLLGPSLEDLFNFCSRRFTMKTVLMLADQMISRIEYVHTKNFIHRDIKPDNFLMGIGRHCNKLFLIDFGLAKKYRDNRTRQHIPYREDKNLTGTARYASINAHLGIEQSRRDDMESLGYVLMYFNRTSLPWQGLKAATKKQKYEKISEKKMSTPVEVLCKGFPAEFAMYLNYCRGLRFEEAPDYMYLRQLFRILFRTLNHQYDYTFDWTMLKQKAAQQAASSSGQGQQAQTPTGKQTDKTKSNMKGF
# Mitogen-activated protein kinase 12 (Homo sapiens), sequence (P53778 whole entry, the tested form may be a part): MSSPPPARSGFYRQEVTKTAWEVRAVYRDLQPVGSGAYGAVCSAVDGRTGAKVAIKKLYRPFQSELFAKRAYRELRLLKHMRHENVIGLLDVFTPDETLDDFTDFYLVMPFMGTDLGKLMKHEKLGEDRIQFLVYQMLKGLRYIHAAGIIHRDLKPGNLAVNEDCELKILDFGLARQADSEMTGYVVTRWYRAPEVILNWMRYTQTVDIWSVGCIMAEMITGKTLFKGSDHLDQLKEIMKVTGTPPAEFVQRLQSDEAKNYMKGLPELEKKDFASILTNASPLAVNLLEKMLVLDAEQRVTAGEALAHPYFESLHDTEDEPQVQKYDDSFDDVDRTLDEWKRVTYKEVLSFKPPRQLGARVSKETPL
smiles,measurement,setting,value
COc1cc(N2CCC(N3CCN(C)CC3)CC2)ccc1Nc1ncc2c(n1)N(C)c1ccccc1C(=O)N2C,inhibition,[1],72%
same,residual activity,[2],97%
same,residual activity,[3],93%
same,residual activity,[4],85%
same,inhibition,[5],100%
same,inhibition,[6],100%
same,inhibition,[7],95%
same,inhibition,[8],100%
same,inhibition,[9],74%
same,inhibition,[10],83%
same,residual activity,[11],97%
same,inhibition,[12],100%
same,inhibition,[13],100%
same,inhibition,[14],76%
same,residual activity,[15],98%
same,inhibition,[16],79%
same,inhibition,[17],100%
same,residual activity,[18],99%
same,inhibition,[19],100%
same,inhibition,[20],100%
same,inhibition,[21],100%
same,inhibition,[22],64%
same,inhibition,[23],100%
same,inhibition,[24],100%
same,inhibition,[25],100%
same,residual activity,[26],86%
same,inhibition,[27],89%
same,inhibition,[28],100%
same,inhibition,[29],79%
same,inhibition,[30],100%
CCOc1cc(C(=O)N2CCC(N3CCN(C)CC3)CC2)ccc1Nc1ncc2c(n1)N(C1CCCC1)c1ccccc1C(=O)N2C,inhibition,[31],inactive
